Measurements reported in US11707449B2, “Methods and formulations for treatment of spinobulbar muscular atrophy” (ST. JUDE CHILDREN'S RESEARCH HOSPITAL, INC., priority 2017, dated 2023).

What was measured:
AR121Q mice [1] = assay: Pilot preclinical trial in AR121Q (SBMA) mice; type: in vivo, mouse; conditions: male SBMA mice; 50 mg/kg intraperitoneally three times per week, 3 to 8 weeks of age
Experimental: (§1) To determine the efficacy of TA and/or MEPB in a mouse model of SBMA, we first performed a pilot study. Five mice were assigned to each drug treatment group: 50 mg/kg TA, 50 mg/kg MEPB, or vehicle (1% DMSO in corn oil). Drug identities were coded to ensure investigator blinding, and drugs were administered three times per week (Monday, Wednesday, and Friday) by intraperitoneal injection from 3 to 8 weeks of age. At 8 weeks, all mice were sacrificed and tissues were collected for pathologic analysis. To fully characterize the efficacy of MEPB in SBMA mice, a large-scale, multi-dose preclinical trial was performed. A power analysis (Table 1) was performed based on the pilot study data to determine the adequate number of mice required for 80% power. At least 10 mice were assigned to each drug treatment group: 50 mg/kg MEPB, 100 mg/kg MEPB, and vehicle (1% DMSO in corn oil). Drug identities were coded to ensure investigator blinding, and drugs were administered three times per week (Monday, Wednesday, and Friday) by intraperitoneal injections from 4 weeks until 30 weeks of age.
(§2) Body weight, rotarod activity, and grip strength data were collected weekly. Footprint analysis and clasping phenotype were assessed at 7 and 8 weeks of age. Body weight was measured using a standard laboratory scale (Fisher Scientific). Rotarod activity analysis was performed on an accelerating rotarod apparatus (IITC Life Science) using a two-day, weekly protocol. Mice were trained on the first day with one session set at 4 rpm for 5 min. The following day, mice were placed on the apparatus, rotation speed was set to accelerate from 4-40 rpm at a rate of 0.1 rpm/s, and the latency to fall was recorded for four separate trials per mouse. Mice were given a 15-min rest period between each trial. Grip strength was measured using a grip strength meter (Bioseb). Grip strength was measured as grams of force in six repeated measurements for forepaws and hindpaws of each animal. To perform gait/footprint analysis, the forepaws and hindpaws of each animal were dipped in red and blue, respectively, water-soluble, non-toxic paint. The animal was then placed in a 70-cm long tunnel lined on the bottom with Whatman filter paper, the entrance was sealed, and the animal was allowed to walk through one time. Footprints were scanned and analyzed with Image J for stride length and forepaw/hindpaw overlap^41. To determine clasping phenotype, mice were recorded using an Apple iPod camera (iOS version 6.1.6) for approximately 60 seconds and still frames were extracted using ImageJ.
(§3) A separate cohort of five mice per treatment group was generated for pathologic and biochemical analysis. Mice were anesthetized by isoflurane inhalation and transcardially perfused with either PBS for frozen tissue samples or 10% formalin for fixed tissue samples. Selected tissues (brain, spinal cord, gastrocnemius/soleus muscle, testes, and liver) were dissected and either snap-frozen in liquid nitrogen or processed for paraffin embedding/sectioning. Tissue sections were stained with hematoxylin and eosin, toluidine blue, or Gomori trichrome to ascertain overall morphology and pathologic changes. To determine AR staining and colocalization patterns, tissue sections were stained with anti-AR (N20, Santa Cruz), anti-polyQ (5TF1-1C2, EMD Millipore), or anti-ubiquitin (Cell Signaling Technology) antibodies. To quantify type I and type II myofibers, hindlimb tissue sections were stained with myosin heavy chain-slow twitch and myosin heavy chain-fast twitch antibodies (Leica Biosystems), respectively. For the purposes of counting ChAT-positive neurons, three stepped sections separated by 50 μm were analyzed for the cervical, thoracic, and lumbosacral areas of spinal cords. The slides contained three to six tissue sections at each level and were labeled with an anti-ChAT antibody (EMD Millipore). […]

[2] = system: AR-responsive genes (Igfbp5, Mt2, Sgk1, Trib1, Camkk2, Tsc22d3, PIk3r3, and AR); assay: Droplet digital PCR of AR target gene expression in MN1-AR24Q cells; type: cell-based
Experimental: The QX200 droplet digital PCR (ddPCR) system (Bio-Rad) was used to measure gene expression levels in 20 μl emulsion PCR reactions that contain 20,000 droplets. Total RNAs were firstly treated with DNase (Thermo Fisher Scientific, AM1907) to remove genomic DNA, and 5 ng of treated RNA was used in each assay. ddPCR assay consisted of the following components: 1× one-step RT-ddPCR mix for probes (Bio-Rad, 1864021), forward primer (900 nM), reverse primer (900 nM), probe (FAM or VIC, 250 nM), nuclease-free water, and 5 ng RNA. All primers and probes were purchased from Thermo Fisher Scientific. Droplets were generated in the droplet generator (Bio-Rad) and PCR was performed in a C1000 Touch thermal cycler (Bio-Rad) according to the manufacturer's recommendation. After PCR, read-out of positive versus negative droplets was performed using the QX200 droplet reader (Bio-Rad) and calculated by QuantaSoft software version 1.7.4.0917 (Bio-Rad).

AR121Q mice [3] = assay: Large-scale blinded multi-dose preclinical trial in AR121Q (SBMA) mice; type: in vivo, mouse
Experimental: as §1, §2, §3

[4] = SBMA mice, both low-dose (50 mg/kg) and high-dose (100 mg/kg)
[5] = SBMA mice, high-dose (100 mg/kg)
[6] = male SBMA mice, low-dose (50 mg/kg) and high-dose (100 mg/kg) intraperitoneally three times per week from 4 weeks of age

## Cc1c(Cl)cccc1Nc1ccccc1C(=O)O [TA, tolfenamic acid]
AR121Q mice [1]
  any measurements of SBMA-associated degeneration: did not significantly alter any measurements of SBMA-associated degeneration

## Cc1ccc(OCCn2c(SCCOc3ccccc3)nc3ccccc32)cc1 [MEPB, 1-[2-(4-methylphenoxy)ethyl]-2-[(2-phenoxyethyl)sulfanyl]-1H-benzimidazole]
[2]
  ligand-dependent changes in transcription of AR target genes: no impact
AR121Q mice [1]
  body weight: significantly improved
  gait and hindlimb clasping: improved gait and hindlimb clasping
  grip strength: significantly improved
  pathologic appearance of skeletal muscle and spinal cord degeneration: qualitatively recovered
  rotarod activity: significantly improved
  survival: no significant change in survival
AR121Q mice [3]; NTG control mice, low-dose or high-dose
  assays of neuromuscular function in NTG control mice: had no measurable effect
AR121Q mice [3]; NTG or SBMA mice, low-dose or high-dose
  blood chemistry: did not significantly change blood chemistry
AR121Q mice [3]; SBMA mice vs vehicle-treated SBMA mice, both low-dose (50 mg/kg) and high-dose (100 mg/kg)
  colocalization of NCAM/PSA-NCAM staining (neurogenic atrophy): significantly reduced colocalization of NCAM/PSA-NCAM staining
AR121Q mice [3]; [4]
  degenerating myofibers in skeletal muscle: significantly reduced
  frequency of type I myofibers: restored the frequency of type I myofibers to levels observed in NTG control mice
  presence of ubiquitin-positive nuclear inclusions in the spinal cord: significantly reduced
  testicular atrophy: reversed
  type II myofiber frequency: remained unaffected
AR121Q mice [3]; [5]
  QOL score: significantly improved the QOL
  loss of spinal cord motor neurons: prevent the loss of spinal cord motor neurons
AR121Q mice [3]; SBMA mice, low-dose (50 mg/kg) and high-dose (100 mg/kg)
  survival: Neither low-dose nor high-dose MEPB treatment significantly altered survival of SBMA mice
AR121Q mice [3]; male SBMA mice, low-dose (50 mg/kg) and high-dose (100 mg/kg)
  gait and hindlimb clasping: qualitatively improved gait and hindlimb clasping
AR121Q mice [3]; [6]
  body weight: significantly augmented
  grip strength: significantly augmented
  rotarod activity: significantly augmented
AR121Q mice [3]; muscle and spinal cords of AR121Q mice, 50 mg/kg or 100 mg/kg
  expression level of endogenous mouse AR or transgenic human AR: did not statistically significantly change
